Results from patent EP0863214A2, “Reporter gene construct for measuring G protein coupled receptor activation” (SMITHKLINE BEECHAM CORPORATION, priority 1997, dated 1998).
Ends that are not written are not given here.

System: HEK 293 cells transfected with MREII VIPII
Type: cell-based, Human
Settings: wild-type HEK 293 cells or HEK 293 cells expressing the porcine CGRP receptor; endogenous receptors or direct activation of adenylyl cyclase; in the presence of IBMX
Protocol: Day 1: HEK293 cells at a density of 4.5x10^6/T-75 flask in Earl's Minimum Essential Medium (EMEM) supplemented with 10% fetal bovine serum and 2 mM glutamine were incubated overnight in a humidified tissue culture incubator at 37°C, 5% CO2.
Day 2: MREII VIPII DNA (7.8 µg) was mixed with 780 µl of serum free EMEM to produce Solution A. Lipofectamine (23.1 µl; Gibco-BRL) was mixed with 780 µl of serum EMEM to produce Solution B. Solutions A and B were then mixed gently and incubate at room temperature for 15-45 minutes. Cells were then rinsed with 15 ml of serum free EMEM and 6.25 ml of serum free EMEM was added. Combined solutions (A + B) were overlayed and the flask was placed in a tissue culture incubator for 5 hours. Media was replaced with 15 ml of EMEM/10% serum/ 2 mM glutamine and stored in the tissue culture incubator.
Day 3: Ninety-six well tissue culture plates were treated with Matrigel (50 µl/well diluted 1/50 with phosphate buffered saline (PBS); Collaborative Biomedical Products) for > 1 hour. Matrigel solution was then removed and the plate was transfected with HEK 293 cells at a cell density of 2.6 x 10^4/well in 100 µl of supplemented EMEM. […] Cells were then incubated for 6 hours in a humidified tissue culture incubator at 37°C, 5% CO2. Media was removed and cells were washed with 50 µl of PBS.
Cell lysis solution (50 µl; Promega) supplemented with AEBSF (0.24 mg/ml), pepstatin, leupeptin, and aprotinin (5µg/ml each), and DNAse I (50 µg/ml) was added and extracts were frozen. Ten microliters of thawed extract were added to assay plates along with 50 µl of reconstituted luciferase assay reagent (Promega) using a luminometer autoinjector (Dynex MLX) and samples were read. Luciferase activity is expressed as a fold enhancement over the basal luciferase activity expressed in cells that have not been challenged with agonist, IBMX, TPA, or forskolin.

| Compound | Luciferase stimulation |
| --- | --- |
| Nc1ncnc2c1ncn2[C@@H]1O[C@H](COP(=O)(O)OP(=O)(O)OP(=O)(O)O)[C@@H](O)[C@H]1O [ATP] | did not stimulate luciferase induction |
| C[N+](C)(C)CCOC(N)=O [carbachol] | did not stimulate luciferase induction |
| Nc1ncnc2c1ncn2[C@@H]1O[C@H](CO)[C@@H](O)[C@H]1O [adenosine] | did not stimulate luciferase induction |
| calcitonin (CGNLSTCMLGTYTQDFNKFHTFPQTAIGVGAP; not fully specified (C-terminus, bridges); ends and bridges not checked; UniProt P01258 85-116, looked up) | Luciferase stimulation was observed |
| VIP (HSDAVFTDNYTRLRKQMAVKKYLNSILN; not fully specified (C-terminus); ends and bridges not checked; UniProt P01282 125-152, looked up) | Luciferase stimulation was observed |
| CCCCC[C@H](O)/C=C/[C@H]1[C@H](O)CC(=O)[C@@H]1C/C=C\CCCC(=O)O [PGE2] | Luciferase stimulation was observed |
| endothelin (CSCSSLMDKECVYFCHLDIIW; not fully specified (bridges); ends and bridges not checked; UniProt P05305 53-73, looked up) | did not stimulate luciferase induction |
